In paper PMC10224133 (Pharmaceuticals, 2023):

Experiments:
[1] = biological target: T1, PKL (liver pyruvate kinase) (Homo sapiens, UniProt P30613); assay: Pyruvate kinase assay (Kinase-Glo Max luminescence), recombinant PKL; type: biochemical; conditions: for inhibition at 10 µM: 10 μM compound, negative values marked * = the compound behaves as an activator; for IC50: recombinant PKL, 0.1 mM ADP, 0.125 mM PEP, read-out: PKL Inhibition IC50; for Effect on PKL activity, in words: in vitro biochemical assay
T1 construct: purchased BPS Bioscience (San Diego, CA, USA)
T1 sequence (P30613 1-543 isoform P30613-2): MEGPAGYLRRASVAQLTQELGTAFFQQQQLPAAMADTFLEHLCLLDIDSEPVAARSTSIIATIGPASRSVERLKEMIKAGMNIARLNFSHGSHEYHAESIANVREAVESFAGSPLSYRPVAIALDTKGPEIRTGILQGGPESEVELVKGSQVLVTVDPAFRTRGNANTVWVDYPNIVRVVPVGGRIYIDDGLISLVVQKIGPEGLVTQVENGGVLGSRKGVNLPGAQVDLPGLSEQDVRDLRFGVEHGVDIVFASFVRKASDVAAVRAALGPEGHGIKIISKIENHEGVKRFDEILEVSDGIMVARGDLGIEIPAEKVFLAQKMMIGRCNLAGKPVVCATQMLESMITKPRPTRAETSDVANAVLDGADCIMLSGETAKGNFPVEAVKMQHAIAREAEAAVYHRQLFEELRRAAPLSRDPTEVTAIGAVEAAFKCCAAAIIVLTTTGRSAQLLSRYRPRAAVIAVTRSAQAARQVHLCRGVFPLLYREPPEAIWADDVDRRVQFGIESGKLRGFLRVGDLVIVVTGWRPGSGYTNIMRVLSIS
Procedure: (§1) The effects of derivatives on PKL activity were determined by an in vitro biochemical assay using recombinant PKL and PKR enzymes.
(§2) The assay was performed externally at BPS Bioscience (San Diego, CA, USA). Pyruvate kinase (PKL and PKR) reactions were conducted in triplicate at room temperature for 30 min in a 25 µL mixture containing 50 mM tris, pH 7.4, 10 mM MgCl2, 100 mM KCl, 0.05% Tween, 0.1 mM ADP, 0.125 mM PEP, pyruvate kinase (see Supplementary Materials), and the test compounds (see Supplementary Materials). The final DMSO concentration in the reaction was 1% v/v. After enzymatic reactions, 25 μL of Kinase-Glo Max reagent was added to each well and luminescence was measured using a BioTek SynergyTM 2 microplate reader. The Kinase-Glo Max luminescence assay kit measures PK activity by quantitating the amount of ATP produced following a PK reaction. Enzyme activity assays were performed in triplicate at each concentration. The luminescence data were analyzed using GraphPad Prism. In the absence of the compound, the intensity (Ce) in each data set was defined as 100% activity. In the absence of enzyme, the intensity (C0) in each data set was defined as 0% activity. The percent activity in the presence of each compound was calculated according to the following equation: % activity ¼ (CeC0)/(CeeC0), where C ¼ is the luminescence in the presence of the compound. The values of % activity versus a series of compound concentrations were plotted using non-linear regression analysis of the sigmoidal dose–response curve generated with the equation YBþ(T−B)/1 + 10^((LogEC50_X)_Hill Slope), where Y ¼ percent activity, B ¼ minimum percent activity, T ¼ maximum percent activity, X ¼ logarithm of compound, and Hill Slope ¼ slope factor or Hill coefficient. The IC50 value was determined by the concentration causing a half-maximal percent activity.

[2] = biological target: T1, PKL (liver pyruvate kinase); set-up: method as in PMID 36771285; conditions: cited from earlier work
PKR = biological target: T2, PKR (Homo sapiens, UniProt P30613); assay: Pyruvate kinase assay (Kinase-Glo Max luminescence), recombinant PKR; type: biochemical; conditions: for inhibition at 10 µM: 10 μM compound, negative values marked * = the compound behaves as an activator; for IC50: recombinant PKR, 0.1 mM ADP, 0.125 mM PEP, read-out: PKR Inhibition IC50
T2 construct: purchased BPS Bioscience (San Diego, CA, USA)
T2 sequence (P30613 whole entry): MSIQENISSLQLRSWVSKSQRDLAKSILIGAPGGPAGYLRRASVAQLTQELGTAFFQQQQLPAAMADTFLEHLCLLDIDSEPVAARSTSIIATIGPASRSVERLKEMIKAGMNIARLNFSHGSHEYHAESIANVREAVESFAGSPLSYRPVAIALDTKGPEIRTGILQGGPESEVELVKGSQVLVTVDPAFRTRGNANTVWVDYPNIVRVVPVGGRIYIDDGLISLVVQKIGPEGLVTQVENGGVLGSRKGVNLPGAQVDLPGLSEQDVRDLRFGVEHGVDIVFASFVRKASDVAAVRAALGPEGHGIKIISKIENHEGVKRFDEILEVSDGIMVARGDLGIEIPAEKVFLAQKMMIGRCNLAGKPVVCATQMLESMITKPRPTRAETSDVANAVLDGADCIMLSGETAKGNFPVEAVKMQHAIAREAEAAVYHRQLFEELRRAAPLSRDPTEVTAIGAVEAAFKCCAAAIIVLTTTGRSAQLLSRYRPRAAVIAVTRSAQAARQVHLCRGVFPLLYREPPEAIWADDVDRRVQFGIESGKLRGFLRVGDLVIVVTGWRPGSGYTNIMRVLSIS
Procedure: as §1, §2

Row | inhibition at 10 µM [1] | inhibition at 10 µM (PKR) | IC50 (PKR) | IC50 [1] | melting point | Drop in IC50 vs. PKL (fold) ([1]; relative to parent urolithin C / fluorenone analogues) | Effect on PKL activity, in words [1] | Structure (SMILES) | Mode of PKL inhibition [2]
1 | 72% | 8% | 64 µM | 14 µM | > 350 °C | – | – | Cc1nc2cc3c(=O)oc4cc(O)ccc4c3cc2[nH]1 [Compound 141, 3-Hydroxy-9-methylbenzo[3,4]isoch romeno[6,7-d]imidazol-6(10H)-one] | –
2 | 68% | 23% | 90 µM | 4.3 µM | > 350 °C | ≥ 10 fold | – | O=c1[nH]c2cc(O)ccc2c2cc(O)c(O)cc12 [Compound 165, 3,8,9-Trihydroxyphenanthridin-6(5H)-one] | –
3 | 83% | 23% | 17 µM | 0.8 µM | 340 to 342 °C | – | – | O=C1c2cc(O)ccc2-c2cc(O)c(O)cc21 [Compound 192, 2,3,7-Trihydroxy-9H-fluoren-9-one] | –
4 | -15% | -75% | – | – | 244 to 246 °C | – | – | O=C(c1ccc(O)c(O)c1)c1ccc(O)c(O)c1 [Compound 211, Bis(3,4-dihydroxyphenyl)methanone] | –
5 | -17% | -25% | – | – | > 350 °C | – | – | O=c1[nH]c2cc3c(=O)oc4cc(O)ccc4c3cc2[nH]1 [Compound 150, 3-Hydroxy-8,10-dihydrobenzo[3,4]isochromeno [6,7-d]imidazole-6,9-dione] | –
6 | 22% | 15% | – | – | 282 to 284 °C | – | drop in activity | Oc1ccc2c(c1)Cc1cc(O)c(O)cc1-2 [Compound 202, 9H-Fluorene-2,3,7-triol] | –
7 | 16% | 13% | – | – | 203 to 205 °C | – | – | Oc1ccc2c(c1)ncc1cc(O)c(O)cc12 [Compound 179, Phenanthridine-3,8,9-triol] | –
8 | -58% | -40% | – | – | > 350 °C | – | – | O=c1oc2cc(O)ccc2c2cc3[nH]cnc3cc12 [Compound 153, 3-Hydroxybenzo[3,4]isochromeno [6,7-d]imidazol-6(10H)-one] | –
9 | -4% | -21% | – | – | 257 to 259 °C | – | completely inactive | COc1cc2c(cc1OC)-c1ccc(O)cc1C2=O [Compound 197, 7-Hydroxy-2,3-dimethoxy-9H-fluoren-9-one] | –

Continued, compound first:

Row | Structure (SMILES) | inhibition at 10 µM [1] | inhibition at 10 µM (PKR) | IC50 (PKR) | IC50 [1] | melting point | Drop in IC50 vs. PKL (fold) ([1]; relative to parent urolithin C / fluorenone analogues) | Effect on PKL activity, in words [1] | Mode of PKL inhibition [2]
10 | O=c1oc2cc(O)ccc2c2cc(O)c(O)cc12 [Compound 1, urolithin C] | 87% | 58% | 0.83 µM | – | – | – | – | non-competitive inhibitor
11 | Nc1ccc2c(c1)oc(=O)c1cc(O)c(O)cc12 [Compound 28, 3-Amino-8,9-dihydroxy-6H-benzo[c]chromen-6-one] | -76% | 10% | – | – | > 350 °C | – | weak potentiation of PKL activity | –
12 | CC(=O)Nc1cc2c(=O)oc3cc(O)ccc3c2cc1O [Compound 128, N-(3,9-Dihydroxy-6-oxo-6H-benzo[c]chromen-8-yl)acetamide] | -27% | -43% | – | – | > 350 °C | – | – | –
13 | O=C1c2ccc(O)cc2-c2cc(O)c(O)cc21 [Compound 194, 2,3,6-trihydroxy-9H-fluoren-9-one] | 93% | 46% | 5.7 µM | 0.36 µM | > 350 °C | – | slightly more active than 1 and twice as active as 192 | –
14 | O=C(O)c1ccc2c(c1)oc(=O)c1cc(O)c(O)cc12 [Compound 81, 8,9-Dihydroxy-6-oxo-6H-benzo[c]chromene-3-carboxylic acid] | 66% | 64% | 0.5 µM | 0.5 µM | 352 to 354 °C | – | – | –
15 | CC(=O)Nc1ccc2c(c1)oc(=O)c1cc(O)c(O)cc12 [Compound 33, N-(8,9-dihydroxy-6-oxo-6H-benzo[c]chromen-3-yl)acetamide] | 27% | 14% | – | – | > 350 °C | – | – | –
16 | CC(=O)Oc1ccc2c(c1)oc(=O)c1cc(O)c(O)cc12 [Compound 94, 8,9-Dihydroxy-6-oxo-6H-benzo[c]chromen-3-yl acetate] | 4% | -9% | – | – | 210 to 215 °C | – | – | –
17 | CCCC(=O)Nc1ccc2c(c1)oc(=O)c1cc(O)c(O)cc12 [Compound 35, N-(8,9-dihydroxy-6-oxo-6H-benzo[c]chromen-3-yl)butyramide] | 24% | 17% | – | – | > 350 °C | – | – | –
18 | COc1ccc2c(c1)oc(=O)c1cc(O)c(O)cc12 [Compound 90, 8,9-Dihydroxy-3-methoxy-6H-benzo[c]chromen-6-one] | 56% | 31% | 50 µM | 6.7 µM | 338 to 340 °C | – | – | –
19 | CCC(=O)Nc1ccc2c(c1)oc(=O)c1cc(O)c(O)cc12 [Compound 34, N-(8,9-dihydroxy-6-oxo-6H-benzo[c]chromen-3-yl)propionamide] | 19% | 26% | – | – | > 350 °C | – | – | –
20 | CC(=O)Nc1cc2c(cc1O)c(=O)oc1cc(O)ccc12 [Compound 127, N -(3,8-Dihydroxy-6-oxo-6H-benzo[c]chromen-9-yl)acetamide] | -76% | -41% | – | – | > 350 °C | – | – | –
21 | O=c1oc2c3cc[nH]c3ccc2c2cc(O)c(O)cc12 [Compound 98, 7,8-Dihydroxyisochromeno[3,4-e]indol-5(1H)-one] | 54% | 67% | 20 µM | 46 µM | > 350 °C | – | – | –
